Assay results taken from US20220378764A1, “[…] OF A GENE ENCODING A CYTOCHROME P450 PROTEIN BY TREATING A HUMAN SUBJECT WITH A NITROXIDE” (priority 2021, published 2022).

System: fifteen genes associated with the cytochrome p450 family
Assay: Microarray gene expression in tissue of Tempol-fed mice, overall statement
Type: in vivo
Details: 5 mg/g of food from 14 to 31 months after birth, cardiac tissue, vs control mice
Procedure: Mice receiving the same food without the addition of Tempol were used as a negative control. At the age of 31 months, the experimental animals were sacrificed and the hearts were surgically removed. The expression of a broad spectrum of genes in the cardiac tissue was assessed using chip-based microarray technology. Such chips are well known in the art and are widely used to assess gene expression.

CC1(C)CC(O)CC(C)(C)N1[O] [Tempol, 4-hydroxy-2,2,6,6-tetramethylpiperidine-1-oxyl]
Expression of fifteen genes associated with the cytochrome p450 family: statistically significant increase in expression
